# According to the supplement of paper PMC9663587:
# What was measured:
# Cediranib/AZD2171 = compound: COc1cc2c(Oc3ccc4[nH]c(C)cc4c3F)ncnc2cc1OCCCN1CCCC1 [Cediranib/AZD2171]
# [1] = compound: CO[C@@H](C)Cn1c(=O)n(C)c2cnc3ccc(-c4cncc(C(C)(C)O)c4)cc3c21
# BVD523 = compound: CC(C)Nc1cc(-c2c[nH]c(C(=O)N[C@H](CO)c3cccc(Cl)c3)c2)c(Cl)cn1 [BVD523]
# AZD1775 = compound: C=CCn1c(=O)c2cnc(Nc3ccc(N4CCN(C)CC4)cc3)nc2n1-c1cccc(C(C)(C)O)n1 [AZD1775]
# [2] = compound: CC(=O)Nc1cccc(-n2c(=O)n(C3CC3)c(=O)c3c(Nc4ccc(I)cc4F)n(C)c(=O)c(C)c32)c1
# THZ1 [3] = compound: T1, CN(C)C/C=C/C(=O)Nc1ccc(C(=O)Nc2cccc(Nc3ncc(Cl)c(-c4c[nH]c5ccccc45)n3)c2)cc1 [THZ1]
# THZ531 [4] = compound: T2, CN(C)C/C=C/C(=O)Nc1ccc(C(=O)N2CCC[C@@H](Nc3ncc(Cl)c(-c4c[nH]c5ccccc45)n3)C2)cc1 [THZ531]
# [5] = compound: CCCCOc1c(C(=O)c2c(F)cc(C)cc2F)c[nH]c2nncc1-2
# Alpelisib/BYL719 = compound: Cc1nc(NC(=O)N2CCC[C@H]2C(N)=O)sc1-c1ccnc(C(C)(C)C(F)(F)F)c1 [Alpelisib/BYL719]
# Saracatinib/AZD0530 = compound: CN1CCN(CCOc2cc(OC3CCOCC3)c3c(Nc4c(Cl)ccc5c4OCO5)ncnc3c2)CC1 [Saracatinib/AZD0530]
# [6] = compound: COc1ccc2c(c1)[C@]1(C[C@H]1c1ccc3c(/C=C/c4ccc(CN5C[C@@H](C)O[C@@H](C)C5)cc4)n[nH]c3c1)C(=O)N2
# YKL-5-124 = compound: C=CC(=O)Nc1ccc(C(=O)Nc2[nH]nc3c2CN(C(=O)N[C@H](CN(C)C)c2ccccc2)C3(C)C)cc1 [YKL-5-124]; assay: increase in dead-cell fraction, 72 h; higher = more death;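 also: breast cancer cell lines in 384-well plates, stained with Hoechst plus LIVE/DEAD far red dye and imaged, cells above an LDR intensity threshold counted dead, Hoechst-negative corpses included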
# [7] = compound: CCc1cnn2c(NCc3ccc[n+]([O-])c3)cc(N3CCCC[C@H]3CCO)nc12; assay: as above
# Neratinib/HKI272 = compound: CCOc1cc2ncc(C#N)c(Nc3ccc(OCc4ccccn4)c(Cl)c3)c2cc1NC(=O)/C=C/CN(C)C [Neratinib/HKI272]; assay: as above
# THZ1 [8] = compound: T1, THZ1; assay: as above
# THZ531 [9] = compound: T2, THZ531; assay: as above
# [10] = compound: CC(=O)c1c(C)c2cnc(Nc3ccc(N4CCNCC4)cn3)nc2n(C2CCCC2)c1=O; assay: as above
# BSJ-03-123 = compound: CC(=O)c1c(C)c2cnc(Nc3ccc(N4CCN(CCOCCOCCOCCNC(=O)COc5cccc6c5C(=O)N(C5CCC(=O)NC5=O)C6=O)CC4)cn3)nc2n(C2CCCC2)c1=O [BSJ-03-123]; assay: as above
# LEE011/Ribociclib = compound: CN(C)C(=O)c1cc2cnc(Nc3ccc(N4CCNCC4)cn3)nc2n1C1CCCC1 [LEE011/Ribociclib]; assay: as above
# 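For GR50, 72 h in this document: breast cancer and non-malignant breast epithelial cell lines, Deep Dye Drop or Dye Drop imaging, nine half-log doses, GR normalized to time-zero plates and DMSO-only controls.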
cell line,measurement,setting,value
SUM1315,"GR50, 72 h",Cediranib/AZD2171,1.47 µM
same,"GR50, 72 h",[1],0.00919 µM
same,"GR50, 72 h",BVD523,6 µM
same,"GR50, 72 h",AZD1775,< 0.001 µM
same,"GR50, 72 h",[2],0.0211 µM
same,"GR50, 72 h",THZ1 [3],0.251 µM
same,"GR50, 72 h",THZ531 [4],0.388 µM
same,"GR50, 72 h",[5],0.00376 µM
same,"GR50, 72 h",Alpelisib/BYL719,6.46 µM
same,"GR50, 72 h",Saracatinib/AZD0530,1.39 µM
same,"GR50, 72 h",[6],0.00184 µM
same,increase in dead-cell fraction,YKL-5-124; 0.001 µM,0.0195
same,increase in dead-cell fraction,YKL-5-124; 0.003162 µM,0.0396
same,increase in dead-cell fraction,YKL-5-124; 0.01 µM,0.0503
same,increase in dead-cell fraction,YKL-5-124; 0.03162 µM,0.0215
same,increase in dead-cell fraction,YKL-5-124; 0.1 µM,0.0766
same,increase in dead-cell fraction,YKL-5-124; 0.3162 µM,0.0731
same,increase in dead-cell fraction,YKL-5-124; 1 µM,0.171
same,increase in dead-cell fraction,YKL-5-124; 3.162 µM,0.134
same,increase in dead-cell fraction,YKL-5-124; 10 µM,0.364
same,increase in dead-cell fraction,[7]; 0.0001 µM,-0.0013
same,increase in dead-cell fraction,[7]; 0.0003162 µM,-0.0006
same,increase in dead-cell fraction,[7]; 0.001 µM,0.0062
same,increase in dead-cell fraction,[7]; 0.003162 µM,0.0147
same,increase in dead-cell fraction,[7]; 0.01 µM,0.0232
same,increase in dead-cell fraction,[7]; 0.03162 µM,0.578
same,increase in dead-cell fraction,[7]; 0.1 µM,0.63
same,increase in dead-cell fraction,[7]; 0.3162 µM,0.64
same,increase in dead-cell fraction,[7]; 1 µM,0.599
same,increase in dead-cell fraction,Neratinib/HKI272; 0.0003162 µM,0.0036
same,increase in dead-cell fraction,Neratinib/HKI272; 0.001 µM,0.0058
same,increase in dead-cell fraction,Neratinib/HKI272; 0.003162 µM,0.0067
same,increase in dead-cell fraction,Neratinib/HKI272; 0.01 µM,0.0047
same,increase in dead-cell fraction,Neratinib/HKI272; 0.03162 µM,0.0181
same,increase in dead-cell fraction,Neratinib/HKI272; 0.1 µM,0.0402
same,increase in dead-cell fraction,Neratinib/HKI272; 0.3162 µM,0.0578
same,increase in dead-cell fraction,Neratinib/HKI272; 1 µM,0.0857
same,increase in dead-cell fraction,Neratinib/HKI272; 3.162 µM,0.0855
same,increase in dead-cell fraction,THZ1 [8]; 0.0001 µM,0.0131
same,increase in dead-cell fraction,THZ1 [8]; 0.0003162 µM,-0.0262
same,increase in dead-cell fraction,THZ1 [8]; 0.001 µM,-0.0208
same,increase in dead-cell fraction,THZ1 [8]; 0.003162 µM,0.0035
same,increase in dead-cell fraction,THZ1 [8]; 0.01 µM,-0.0115
same,increase in dead-cell fraction,THZ1 [8]; 0.03162 µM,-0.0232
same,increase in dead-cell fraction,THZ1 [8]; 0.1 µM,-0.0483
same,increase in dead-cell fraction,THZ1 [8]; 0.3162 µM,0.0421
same,increase in dead-cell fraction,THZ1 [8]; 1 µM,0.61
same,increase in dead-cell fraction,THZ531 [9]; 0.0001 µM,0.0119
same,increase in dead-cell fraction,THZ531 [9]; 0.0003162 µM,-0.0037
same,increase in dead-cell fraction,THZ531 [9]; 0.001 µM,-0.0061
same,increase in dead-cell fraction,THZ531 [9]; 0.003162 µM,0.0067
same,increase in dead-cell fraction,THZ531 [9]; 0.01 µM,0.001
same,increase in dead-cell fraction,THZ531 [9]; 0.03162 µM,-0.0178
same,increase in dead-cell fraction,THZ531 [9]; 0.1 µM,-0.0022
same,increase in dead-cell fraction,THZ531 [9]; 0.3162 µM,0.0155
same,increase in dead-cell fraction,THZ531 [9]; 1 µM,0.204
same,increase in dead-cell fraction,[10]; 0.0003162 µM,-0.0007
same,increase in dead-cell fraction,[10]; 0.001 µM,-0.0011
same,increase in dead-cell fraction,[10]; 0.003162 µM,-0.0024
same,increase in dead-cell fraction,[10]; 0.01 µM,0.0003
same,increase in dead-cell fraction,[10]; 0.03162 µM,0.0166
same,increase in dead-cell fraction,[10]; 0.1 µM,0.0188
same,increase in dead-cell fraction,[10]; 0.3162 µM,0.0295
same,increase in dead-cell fraction,[10]; 1 µM,0.0213
same,increase in dead-cell fraction,[10]; 3.162 µM,0.0282
same,increase in dead-cell fraction,BSJ-03-123; 0.001 µM,-0.0091
same,increase in dead-cell fraction,BSJ-03-123; 0.003162 µM,0.0246
same,increase in dead-cell fraction,BSJ-03-123; 0.01 µM,0.0376
same,increase in dead-cell fraction,BSJ-03-123; 0.03162 µM,0.0297
same,increase in dead-cell fraction,BSJ-03-123; 0.1 µM,0.0105
same,increase in dead-cell fraction,BSJ-03-123; 0.3162 µM,-0.0013
same,increase in dead-cell fraction,BSJ-03-123; 1 µM,0.033
same,increase in dead-cell fraction,BSJ-03-123; 3.162 µM,0.03
same,increase in dead-cell fraction,BSJ-03-123; 10 µM,0.0923
same,increase in dead-cell fraction,LEE011/Ribociclib; 0.001 µM,0.0236
same,increase in dead-cell fraction,LEE011/Ribociclib; 0.003162 µM,0.0101
same,increase in dead-cell fraction,LEE011/Ribociclib; 0.01 µM,0.0448
same,increase in dead-cell fraction,LEE011/Ribociclib; 0.03162 µM,0.0191
same,increase in dead-cell fraction,LEE011/Ribociclib; 0.1 µM,0.054
same,increase in dead-cell fraction,LEE011/Ribociclib; 0.3162 µM,0.071
same,increase in dead-cell fraction,LEE011/Ribociclib; 1 µM,0.0703
same,increase in dead-cell fraction,LEE011/Ribociclib; 3.162 µM,0.0888
same,increase in dead-cell fraction,LEE011/Ribociclib; 10 µM,0.114
